Source: ChEMBL document CHEMBL1201862, “PubChem BioAssay data set” (2004)
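Method: 48-hour compound exposure of cells in 96-well plates, five concentrations, linear interpolation of endpoints. GI50 is the concentration that inhibits growth by half.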 Calls of active or inactive are those of the source. No stated cut-off is given here; in the data, active = GI50 up to about 1.1 µM and inactive = higher.

How the values were obtained:
Assay in all cases: growth of human tumour cells (NCI), 48 h
[1] = system: UACC-257
[2] = system: Malme-3M
[3] = system: SNB-75
[4] = system: COLO 205
[5] = system: HOP-92
[6] = system: UO-31
[7] = system: SNB-19
[8] = system: SN12C
[9] = system: HL-60
[10] = system: A549
[11] = system: IGROV-1
[12] = system: NCI-H23
[13] = system: HT-29
[14] = system: MDA-MB-435
[15] = system: SK-MEL-28
[16] = system: EKVX
[17] = system: MDA-N
[18] = system: SK-MEL-5
[19] = system: Hs-578T
[20] = system: SF-539

Measured: GI50

N/C(=N\Nc1ccc(S(N)(=O)=O)cc1)c1cnccn1
inactive: [1] > 100 µM | [2] > 100 µM | [3] > 100 µM | [4] > 100 µM | [5] > 100 µM | [6] > 100 µM | [7] > 100 µM | [8] > 100 µM | [9] > 100 µM | [10] > 100 µM | [11] > 100 µM | [12] > 100 µM | [13] > 100 µM | [14] > 100 µM | [15] > 100 µM | [16] > 100 µM | [17] > 100 µM | [18] > 100 µM | [19] > 100 µM

Cc1cc(Br)cc(C)c1NC(=O)C(=O)C1C(=O)C(CC2C(=O)c3ccccc3C2=O)C(=O)CC1(C)C (configuration not stated)
inactive: [1] > 100 µM | [3] > 100 µM | [4] > 100 µM | [5] 55.3 µM | [20] > 100 µM | [6] 16.8 µM | [7] > 100 µM | [8] > 100 µM | [9] 28.5 µM | [10] 79.6 µM | [11] 29.9 µM | [12] 84.1 µM | [13] > 100 µM | [14] > 100 µM | [15] > 100 µM | [16] 50.8 µM | [17] > 100 µM | [18] > 100 µM | [19] > 100 µM

O=C(NNC(=S)Nc1ccc(Cl)cc1)c1cc(-c2ccccc2)nc2ccccc12
inactive: [1] 5.55 µM | [2] 4.6 µM | [3] 4.9 µM | [4] 4.99 µM | [5] 3.59 µM | [20] 3.69 µM | [6] 5.28 µM | [7] 6.89 µM | [8] 4.97 µM | [10] 7.11 µM | [11] 5.96 µM | [12] 4.94 µM | [13] 8.73 µM | [14] 2.82 µM | [15] 3.31 µM | [17] 3.25 µM | [18] 3.73 µM | [19] 11.7 µM

CN1C(=O)C(=CNc2ccccc2Cl)C(=O)N(C)C1=O
inactive: [1] > 100 µM | [2] > 100 µM | [3] > 100 µM | [4] > 100 µM | [5] > 100 µM | [20] 20.6 µM | [6] > 100 µM | [7] 23.8 µM | [8] > 100 µM | [10] 21.7 µM | [11] > 100 µM | [12] > 100 µM | [13] > 100 µM | [14] > 100 µM | [16] > 100 µM | [17] > 100 µM | [18] > 100 µM | [19] > 100 µM

COc1ccc(OC)c2sc(N3C(=O)/C(=C/Cc4ccco4)N=C3c3ccccc3)nc12
inactive: [1] > 100 µM | [3] 24.7 µM | [4] 50.5 µM | [5] 35.8 µM | [20] 53.5 µM | [6] 30.9 µM | [7] 47.3 µM | [8] 33.3 µM | [9] 18.1 µM | [10] 34.7 µM | [11] 30.6 µM | [13] 44 µM | [14] 19.4 µM | [15] 79.1 µM | [16] 66.8 µM | [17] 19.6 µM | [18] 21.2 µM | [19] 42.2 µM

C[C@@H](NC(=O)[C@@H]1C[C@]1(C)CO)c1cccc2ccccc12
inactive: [1] > 100 µM | [2] > 100 µM | [3] > 100 µM | [4] > 100 µM | [5] > 100 µM | [6] > 100 µM | [7] > 100 µM | [8] > 100 µM | [10] > 100 µM | [11] > 100 µM | [12] > 100 µM | [13] > 100 µM | [14] > 100 µM | [15] > 100 µM | [16] > 100 µM | [17] > 100 µM | [18] > 100 µM | [19] > 100 µM

COC(=O)c1ccc(NCC2=CC(=O)C=CC2=O)cc1O
inactive: [1] 16.2 µM | [2] 10.6 µM | [3] 19 µM | [4] 13.2 µM | [5] 2.92 µM | [20] 13.5 µM | [6] 12.7 µM | [7] 19.7 µM | [8] 21.5 µM | [10] 32.6 µM | [11] 17.3 µM | [12] 17.9 µM | [13] 19.6 µM | [14] 29.4 µM | [15] 46 µM | [16] 17.7 µM | [17] 16.4 µM | [18] 24.4 µM | [19] 48.6 µM

CCOC(=O)/C=C/CCO[Si](C)(C)C(C)(C)C
inactive: [1] > 100 µM | [2] > 100 µM | [3] 82.8 µM | [4] > 100 µM | [5] > 100 µM | [20] > 100 µM | [6] > 100 µM | [7] > 100 µM | [8] > 100 µM | [10] > 100 µM | [11] > 100 µM | [12] > 100 µM | [13] > 100 µM | [14] > 100 µM | [15] > 100 µM | [16] > 100 µM | [17] > 100 µM | [18] > 100 µM | [19] > 100 µM

Cc1ccc(/C=N/Nc2ncccn2)s1
inactive: [1] > 100 µM | [2] > 100 µM | [3] > 100 µM | [4] > 100 µM | [5] > 100 µM | [20] > 100 µM | [6] > 100 µM | [7] > 100 µM | [8] > 100 µM | [10] > 100 µM | [11] > 100 µM | [12] > 100 µM | [13] > 100 µM | [14] > 100 µM | [15] > 100 µM | [16] > 100 µM | [17] > 100 µM | [18] > 100 µM | [19] > 100 µM

C/C(=C\c1ccccn1)c1ccccn1
inactive: [1] > 100 µM | [2] > 100 µM | [3] > 100 µM | [4] > 100 µM | [5] > 100 µM | [6] > 100 µM | [7] > 100 µM | [10] > 100 µM | [11] > 100 µM | [12] > 100 µM | [13] > 100 µM | [14] > 100 µM | [15] > 100 µM | [16] > 100 µM | [17] > 100 µM | [18] > 100 µM | [19] > 100 µM

CN1CCN(C(=S)N(C(=O)c2ccco2)C2CCCCC2)CC1
inactive: [1] > 100 µM | [2] > 100 µM | [3] 50.7 µM | [4] > 100 µM | [5] > 100 µM | [6] > 100 µM | [7] > 100 µM | [8] > 100 µM | [9] > 10 µM | [10] > 100 µM | [11] > 100 µM | [12] > 100 µM | [13] > 100 µM | [14] > 100 µM | [15] > 100 µM | [17] > 100 µM | [18] > 100 µM | [19] > 100 µM
